In the CheMixHub viscosity set:

Assay: xn = mol fraction of the nth substance listed

CC1CCCCC1=O (configuration not stated) + NC=O
viscosity [mPa·s], 100 kPa
Details	x1 = 0.1005	x1 = 0.1979	x1 = 0.2917	x1 = 0.4002	x1 = 0.5089	x1 = 0.6019	x1 = 0.6999	x1 = 0.8001	x1 = 0.9001
303.15 K	2.822	2.768	2.712	2.644	2.575	2.513	2.446	2.375	2.302
308.15 K	2.583	2.549	2.513	2.468	2.42	2.378	2.331	2.281	2.228
313.15 K	2.346	2.332	2.315	2.291	2.265	2.242	2.217	2.188	2.154

CN(C)CCCO + NCCCO
viscosity [mPa·s], 100 kPa
Details	x2 = 0.1	x2 = 0.1998	x2 = 0.2997	x2 = 0.4008	x2 = 0.5	x2 = 0.5024	x2 = 0.6004	x2 = 0.7021	x2 = 0.7992	x2 = 0.9007
293.15 K	8.883	10.61	12.71	15.1	18.49	18.49	21.41	24.67	29.63	34.66
303.15 K	6.062	7.04	8.322	9.824	11.73	11.73	13.48	15.36	18.09	20.64
313.15 K	4.35	5.099	5.838	6.628	7.819	7.819	8.782	9.908	11.62	13.22
323.15 K	3.23	3.72	4.206	4.668	5.389	5.389	6.034	6.779	7.862	8.889

CC(O)CN(C)C (configuration not stated) + NCc1ccccc1
viscosity [mPa·s], 101 kPa
Details	x1 = 0.1003	x1 = 0.1998	x1 = 0.3	x1 = 0.4001	x1 = 0.5002	x1 = 0.5999	x1 = 0.7	x1 = 0.8	x1 = 0.8997
293.15 K	1.87	1.91	1.92	1.91	1.88	1.84	1.78	1.7	1.6
303.15 K	1.5	1.51	1.51	1.5	1.48	1.44	1.39	1.33	1.25
313.15 K	1.23	1.23	1.22	1.21	1.18	1.14	1.1	1.05	1
323.15 K	1.06	1.05	1.03	1.01	0.98	0.95	0.91	0.87	0.83

O=[N+]([O-])c1ccccc1O + Nc1ccccc1
viscosity [mPa·s], 101 kPa
Details	x1 = 0.07555	x1 = 0.1616	x1 = 0.246	x1 = 0.3265	x1 = 0.4134	x1 = 0.5065	x1 = 0.5908	x1 = 0.6928	x1 = 0.7919	x1 = 0.878
303.15 K	2.972	2.863	2.805	2.802	2.828	2.881	2.952	3.068	3.225	–
313.15 K	2.322	2.257	2.224	2.215	2.23	2.272	2.328	2.415	2.515	2.61
